Assay [1] has as its system MDA-MB-231. Nature of the assay: Anticancer activity against human MDA-MB-231 cells assessed as cell growth inhibition by MTT assay. Type of assay: functional, cell-based. A general note: Formazan colour is commonly taken as a measure of viable cells.
Assay [2] in a line: Inhibition of cIAP1 (unknown origin). Further details: species or system Homo sapiens.
Assay [3] concerns MDA-MB-231. Description: Anticancer activity against human MDA-MB-231 cells assessed as cell growth inhibition incubated for 24 hrs by MTT assay. The following applies: MDA-MB-231, 24 h. Type of assay: functional, cell-based.
The test system of assay [4] is BT-549. Description: Anticancer activity against human BT-549 cells assessed as cell growth inhibition incubated for 24 hrs by MTT assay. Type of assay: functional, cell-based. The conditions noted are these: BT-549, 24 h.
Assay [5] concerns MDA-MB-436. Description: Anticancer activity against human MDA-MB-436 cells assessed as cell growth inhibition incubated for 24 hrs by MTT assay. The conditions noted are these: MDA-MB-436, 24 h. Type of assay: functional, cell-based.
Assay [6] deals with HCC70. Description: Anticancer activity against human HCC70 cells assessed as cell growth inhibition incubated for 5 days by sulforhodamine B staining based assay. It counts as functional. The following applies: HCC70, 120 h. In general terms: Sulforhodamine B stains cellular protein and so reports cell mass.
The next assay concerns SUM149PT. Description: Anticancer activity against human SUM149 cells assessed as cell growth inhibition incubated for 5 days by sulforhodamine B staining based assay. It counts as functional. The following applies: 120 h.
The test system of a further assay is SUM-159-PT. Description: Anticancer activity against human SUM159 cells assessed as cell growth inhibition incubated for 5 days by sulforhodamine B staining based assay. It counts as functional. The following applies: 120 h.
Assay [7] concerns MDA-MB-231. Nature of the assay: Anticancer activity against human MDA-MB-231 cells assessed as cell growth inhibition incubated for 5 days by sulforhodamine B staining based assay. The following applies: MDA-MB-231, 120 h. Type of assay: functional.
Another assay relates to HCC1937. Description: Anticancer activity against human HCC1937 cells assessed as cell growth inhibition incubated for 5 days by sulforhodamine B staining based assay. Type of assay: functional. The following applies: HCC1937, 120 h.
The next assay concerns HCC1806. Description: Anticancer activity against human HCC1806 cells assessed as cell growth inhibition incubated for 5 days by sulforhodamine B staining based assay. The conditions noted are these: HCC1806, 120 h. It counts as functional.
The test system of another assay is BT-20. Nature of the assay: Anticancer activity against human BT-20 cells assessed as cell growth inhibition incubated for 5 days by sulforhodamine B staining based assay. Type of assay: functional. The following applies: BT-20, 120 h.
Assay [8] deals with Plasminogen activator inhibitor 1 (Homo sapiens) (UniProt P05121).
Plasminogen activator inhibitor 1 (Homo sapiens), sequence (P05121 whole entry): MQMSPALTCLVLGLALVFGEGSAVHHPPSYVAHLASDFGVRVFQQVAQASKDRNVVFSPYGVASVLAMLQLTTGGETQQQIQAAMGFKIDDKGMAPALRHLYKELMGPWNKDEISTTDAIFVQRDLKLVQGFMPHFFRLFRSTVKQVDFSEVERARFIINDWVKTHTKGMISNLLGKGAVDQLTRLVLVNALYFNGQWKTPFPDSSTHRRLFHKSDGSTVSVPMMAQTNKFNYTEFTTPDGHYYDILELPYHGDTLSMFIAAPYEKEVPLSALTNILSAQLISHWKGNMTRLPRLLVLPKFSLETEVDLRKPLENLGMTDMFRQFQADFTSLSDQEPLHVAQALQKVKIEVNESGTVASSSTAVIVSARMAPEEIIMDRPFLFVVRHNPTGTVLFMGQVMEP
Assay [9] can be described thus: Inhibition of ERK (unknown origin). Further details: species or system Homo sapiens.
A short description of assay [10]: Inhibition of MEK (unknown origin). Further details: species or system Homo sapiens.
The target in assay [11] is Proto-oncogene tyrosine-protein kinase Src (Homo sapiens, UniProt P12931). Description: Inhibition of human SRC by microplate reader analysis.
Proto-oncogene tyrosine-protein kinase Src, sequence (P12931 2-536 limits assumed): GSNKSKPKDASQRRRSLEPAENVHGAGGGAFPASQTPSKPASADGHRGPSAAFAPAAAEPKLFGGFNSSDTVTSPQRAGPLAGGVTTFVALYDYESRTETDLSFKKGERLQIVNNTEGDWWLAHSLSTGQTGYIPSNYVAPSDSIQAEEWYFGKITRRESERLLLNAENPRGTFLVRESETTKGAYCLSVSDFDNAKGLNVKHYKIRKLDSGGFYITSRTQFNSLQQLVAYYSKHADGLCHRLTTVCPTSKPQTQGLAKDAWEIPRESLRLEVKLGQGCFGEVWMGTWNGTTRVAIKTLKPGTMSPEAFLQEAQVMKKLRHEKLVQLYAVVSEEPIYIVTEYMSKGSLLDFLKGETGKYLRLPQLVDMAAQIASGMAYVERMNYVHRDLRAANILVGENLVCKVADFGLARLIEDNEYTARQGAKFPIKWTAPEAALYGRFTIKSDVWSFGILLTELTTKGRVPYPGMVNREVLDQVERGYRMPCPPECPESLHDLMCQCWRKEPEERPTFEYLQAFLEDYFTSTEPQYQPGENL
For another assay, the system named is 4T1. Nature of the assay: Anticancer activity against mouse 4T1 cells assessed as cell growth inhibition by MTS assay. It counts as functional, cell-based.
Assay [12] relates to MDA-MB-231. Nature of the assay: Anticancer activity against human MDA-MB-231 cells assessed as cell growth inhibition. Type of assay: functional, cell-based.
Assay [13] concerns MDA-MB-231. Nature of the assay: Anticancer activity against human MDA-MB-231 cells assessed as cell growth inhibition by MTS assay. It counts as functional, cell-based.
In assay [14] the test system is MDA-MB-231. Description: Anticancer activity against human MDA-MB-231 cells assessed as cell growth inhibition incubated for 72 hrs by MTT assay. It counts as functional, cell-based. The following applies: MDA-MB-231, 72 h.
For the next assay, the system named is Hs-578T. Description: Anticancer activity against human Hs-578T cells assessed as cell growth inhibition by MTS assay. It counts as functional, cell-based.
The test system of assay [15] is BT-549. Description: Anticancer activity against human BT-549 cells assessed as cell growth inhibition by MTS assay. It counts as functional, cell-based.
The subject of assay [16] is MDA-MB-231. Nature of the assay: Anticancer activity against human MDA-MB-231 cells assessed as cell growth inhibition by crystal violet staining based haemocytometer analysis. It counts as functional.
For the next assay, the system named is HCC38. Nature of the assay: Anticancer activity against human HCC38 cells assessed as cell growth inhibition by crystal violet staining based haemocytometer analysis. Type of assay: functional.
Assay [17] relates to MDA-MB-436. Description: Anticancer activity against human MDA-MB-436 cells assessed as cell growth inhibition by crystal violet staining based haemocytometer analysis. It counts as functional.
Assay [18] relates to HCC70. Nature of the assay: Anticancer activity against human HCC70 cells assessed as cell growth inhibition incubated up to 72 hrs by Cell-Titre Glo assay. It counts as functional, cell-based. The following applies: HCC70, 72 h.
Assay [19] concerns MDA-MB-231. Description: Anticancer activity against human MDA-MB-231 cells assessed as cell growth inhibition incubated up to 72 hrs by Cell-Titre Glo assay. It counts as functional, cell-based. The following applies: MDA-MB-231, 72 h.

The values below come from ChEMBL document CHEMBL5226297, “Small-Molecule Drug Discovery in Triple Negative Breast Cancer: Current Situation and Future Directions” (J Med Chem, 2021).

Usually IC50 stands for the point on the concentration scale where inhibition reaches its midpoint. As for `O=C(/C=C/c1ccc(O)c(O)c1)O[C@@H]1C[C@](OC(=O)/C=C/c2ccc(O)c(O)c2)(C(=O)O)C[C@@H](O)[C@H]1O` [1,5-O-TRANS-DICAFFEOYLQUINIC ACID], the half-maximal inhibitory concentration (IC50) in the assay on MDA-MB-231 [1] was 81.9 µM.
For the molecule `CN[C@@H](C)C(=O)N[C@H](C(=O)N1CCC[C@H]1c1nc(C(=O)c2ccc(F)cc2)cs1)C1CCCCC1` [LCL-161], the IC50 in assay [2] is 0.4 nM.
As to `C=C1C(=O)O[C@]2(C)CC[C@H](CBr)[C@]12OC`, the IC50 in the assay on MDA-MB-231 [3] is 7.91 µM; in the assay on BT-549 [4], 6.61 µM; in the assay with MDA-MB-436 [5], 8.63 µM.
Take `CCNc1cc(O)c2c(c1)/C=C/C[C@H](O)[C@H](O)C(=O)/C=C\[C@@H](C)[C@H](C)OC2=O` [E-6201]: the IC50 in the assay on HCC70 [6] was 8.79 µM; in the assay with SUM149PT, 210 nM; in the assay with SUM-159-PT, 2360 nM; in the assay with MDA-MB-231 [7] it was 250 nM; with HCC1937 it was 3.73 µM; in the assay on HCC1806, 2500 nM. For the same molecule, the IC50 with BT-20 was 10.1 µM.
Regarding `O=C(O)C(=O)c1cn(Cc2ccccc2)c2ccc(-c3ccc(OC(F)(F)F)cc3)cc12`, the IC in assay [8] worked out at 5 µM.
As for `O=C(Nc1ccc([N+](=O)[O-])cc1Cl)c1cc(Cl)ccc1O` [NICLOSAMIDE], the IC50 with MDA-MB-231 [3] came to 0.625 µM.
With `CCOC(=O)C1=C(C)NC(=O)NC1c1cccc([N+](=O)[O-])c1` (centres undefined), the IC50 in [9] and in assay [10] was 50 µM in each case.
`C=C1[C@H]2[C@@H](/C(=C/C)C(=O)[C@H]2CC(=O)C(C)CC)[C@H](C(C)C)N[C@H]1CC(=O)/C=C(\C)CC` (some centres undefined): in the assay on MDA-MB-231 [3], the IC50 came out at 5 µM.
In the case of `OC[C@H]1O[C@@H](OCCc2ccc(O)cc2)[C@H](O)[C@@H](O)[C@@H]1O` [SALIDROSIDE], in the assay with MDA-MB-231 [3], the IC50 was 40 µM.
Take `Cc1nc2c(c(C)c1O)CC(=O)N2`: 3.23 µM corresponded to half-maximal inhibition in [11] (IC50).
In the case of `CCN(CC)C(=S)SSC(=S)N(CC)CC`, the IC50 in the assay with 4T1 was 250 nM.
As for `CO[C@H]1C[C@H](C)Cc2cc(O)cc(c2)NC(=O)/C(C)=C/CC[C@H](OC)[C@@H](OC(N)=O)/C(C)=C/[C@H](C)[C@H]1O`, the IC50 in the assay with MDA-MB-231 [12] stood at 74.9 µM.
Turning to `CC[C@@H](C(=O)[C@@H](C)[C@@H](O)[C@H](C)[C@@H]1O[C@@H]([C@@H](CC)C(=O)O)CC[C@@H]1C)[C@H]1O[C@]2(C=C[C@@H](O)[C@]3(CC[C@@](C)([C@H]4CC[C@](O)(CC)[C@H](C)O4)O3)O2)[C@H](C)C[C@@H]1C` [SALINOMYCIN], the IC50 in the assay with MDA-MB-231 [13] stood at 500 nM.
With `C=Cc1c(C)c2cc3nc(c4c5nc(cc6[nH]c(cc1[nH]2)c(C)c6CC)C(C)=C5C(=O)[C@@H]4C(=O)OC)C(CCC(=O)O)=C3C`, the IC50 with MDA-MB-231 [14] stood at 6.5 µM.
For the molecule `CNCCC(Oc1ccc(C(F)(F)F)cc1)c1ccccc1` (centres undefined) [FLUOXETINE], the IC50 with MDA-MB-231 [3] and with MDA-MB-436 [5] was 0.5 µM throughout.
On to `COc1cc2nccc(C(OC(C)=O)c3ccc4c(c3OC)C=CC(C)(C)O4)c2cc1OC` (centres undefined), for which the figures for the IC50 with MDA-MB-231 [13], in the assay on Hs-578T and in the assay on BT-549 [15] were 5000 nM, 5 µM and 15 µM, respectively.
For `C=C1C(=O)O[C@@H]2C[C@@]3(C)CCC[C@H](C)C3=C[C@H]12` [HELENINE], in the assay on MDA-MB-231 [3], the IC50 worked out at 15 µM.
As a reminder, the EC50 is the midpoint of the concentration-response curve. With `CC(=O)c1c(C)c2cnc(Nc3ccc(N4CCNCC4)cn3)nc2n(C2CCCC2)c1=O` [PALBOCICLIB], the values for the EC50 in the assay with MDA-MB-231 [16], in the assay with HCC38 and with MDA-MB-436 [17] were 300 nM, 1400 nM and 5 µM, respectively.
On to `CC(=O)O[C@@H]1[C@@H](OC(C)=O)[C@@H](O)[C@H](Oc2c(-c3ccc(O)cc3)oc3cc(O)cc(O)c3c2=O)O[C@H]1C`, for which the IC50 with HCC70 [18] is 15 µM; with MDA-MB-231 [19], 3000 nM.
